Source: patent publication US6410009B1, “Pharmaceutical composition for treating hepatitis B virus (HBV) infection” (Hadasit Medical Research Services & Development Co., Ltd., priority 1997, dated 2002)

Legend:
HBV [1] = assay: HBV infection of human hepatocellular carcinoma cell line HuH7; format: cell-based; settings: hIL-6 500 ng/ml
Experimental: HBV infection protocol of human hepatocellular carcinoma cell line HuH7: Human sera were screened for the presence of HBV DNA sequences. Positive sera were analyzed quantitatively for viral particle concentration, as described by A. Klein, J. Clin. Microb., vol. 35, pp. 1897-1899 […]. Sera containing over 108 particles per ml were selected for infection experiments. The infection experiments included the following groups: Group 1—Cells were incubated with HBV without the addition of hIL-6 in the presence of polybrene 2 mg/ml, for 90 min at 37° C., in a 5% CO2 shaking incubator, in a total volume of 1.5 to 2 ml. Group 2—Cells were incubated with 1 ml of HBV positive serum, in the presence of hIL-6 (500 ng/ml) and polybrene 2 mg/ml, for 90 min at 37° C., in a 5% CO2 incubator, in a total volume of 1.5 to 2 ml. Group 3—Cells were incubated with 1 ml of HBV positive serum, in the presence of the cytokine hyper-IL-6 (HIL-6), 1.5 mg/ml, and polybrene 2 mg/ml, for 90 min at 37° C., in a 5% CO2 shaking incubator, in a total volume of 1.5 to 2 ml. The preparation of the cytokine hyper-IL-6 (HIL-6) is described in M. Fischer, et al., Nat. Biotechnol., vol. 15, pp. 142-145 (1997); T. Rakemann et al., J. Biol. Chem., vol. 274, pp. 1257-1266 (1999); P. Schirmacher et al., Am. J. Pathol., vol. 153, pp. 639-648 (1998). […]

HBV [2] = assay: HBV viremia in SCID>BNX chimeric mice transplanted with normal human liver fragments incubated ex-vivo with HBV-positive sera with hIL6
Experimental: A fragment of normal human liver from a patient with no indication of any HBV-related markers or disease, was incubated ex-vivo with a high titer HBV DNA-positive serum prior to transplantation under the kidney capsule of the chimeric animals. HBV DNA sequences were undetectable by PCR from two different genomic regions in any of these animals during the month following transplantation.
However, when liver tissue originating from the same patients was incubated ex-vivo with the above-mentioned HBV DNA-positive sera together with hIL6, HBV DNA sequences were detected from day 16 to day 31, in sera of about 50% of the transplanted animals.
Pre-exposure of liver tissue to hIL6 prior to incubation with HBV ex-vivo, increased infection to about 90% of the animals. […]
The 50 μl PCR reaction volume contained 10 pmole of each oligonucleotide primer in reaction buffer (10 mM Tris-HCl, pH 8.3, 50 mM KCl, 2.0 mM MgCl2, 0.01 % (w/v) gelatin, 250 μM of dATP, dGTP, dCTP, dTTP and 0.5 u of Taq polymerase. The reaction mixtures were overlaid with 30 μl of mineral oil. PCR cycles included 94° C. for 1 min., 55° C. for 1 min. and 72° C. for 3 min., 35 repeated cycles. 10 μl of reaction mixture was analyzed on a 2% agarose gel. Oligonucleotides used for the pre-core/core amplification were: […]

HBV [3] = assay: HBV-DNA by PCR in sera of chimeric mice after intrasplenic injection of HepG2-derived cell lines incubated with HBV with or without hIL6; format: in vivo, SCID>BNX chimeric mice; settings: HepG2-hIL6R cells incubated with HBV in the presence of hIL6
Experimental: Following incubation, the various mixtures were injected intrasplenically to the chimeric mice to generate HCC foci in the liver, as shown in FIG. 4.
All cell lines grew in T25 flasks supplemented with DMEM medium, enriched with 10% fetal bovine serum. For infection experiments, cells were trypsinized and washed twice with PBS, followed by incubation with HBV-positive human sera ([…]) in the presence or absence of hIL6 (500 ng/ml) in 1-2 ml of DMEM. After 2-4 h incubation at 37° C., 4×10^6 cells/ml, 0.5 ml/mouse were injected intrasplenically to 8-10 SCID>BNX mice in each group. Animals were splenectomized following the injection.
Mice were bled at two weekly intervals for 3 months, and DNA was extracted from 100 μl sera. The DNA was subjected to PCR amplification. The DNA extraction and the PCR method applied are described in the legend of FIG. 3.

Substance: hIL6: human interleukin 6
- HBV infection of HuH7 cells (HBV [1]): enhanced
- transplanted animals with HBV DNA sequences detected in sera (HBV [2]; liver tissue incubated ex-vivo with HBV DNA-positive sera together with hIL6 (500 ng/ml), day 16 to day 31): about 50%
- animals infected (HBV [2]; pre-exposure of liver tissue to hIL6 prior to incubation with HBV ex-vivo): about 90%
- time after transplantation at which HBV-DNA sequences could be detected in serum (HBV [3]): 13 days
